Data from article PMC8151276, “An Integrated Approach toward NanoBRET Tracers for Analysis of GPCR Ligand Engagement” (Molecules, 2021).

Tests used:
Format in all cases: binding
FZD2 = target: T1, FZD2 (Homo sapiens, UniProt Q14332); assay: NanoBRET screen HiBiT-FZD2 in HEK293
T1 construct: purchased Promega (in-house HiBiT-GPCR construct library, NanoBRET)
Experimental: (§1) Each tracer candidate was screened across the entire library of HiBiT-GPCR constructs using NanoBRET as the detection modality. As depicted in Figure 4A, the specificity of interactions was evaluated through decrease in BRET due to competitive displacement of a bound tracer by excess parental compound. Each tracer was analyzed for binding to each HiBiT-GPCR fusion in the absence and in the presence of competing parental compound. Briefly, HEK293 cells were transfected with HiBiT-GPCR constructs diluted into promoterless DNA to reduce expression and maximize translocation to the cell surface. Each tracer candidate was then screened at concentrations of 1 μM and 0.1 μM across cells expressing these fusions. Cells were treated for 1.5 h with tracer either alone or in the presence of 20 μM competing parental compound (i.e., control). BRET was measured upon addition of purified LgBiT and subsequent complementation with HiBiT genetically fused to a GPCR. The specificity of interactions was assessed through a decrease in BRET signal due to competitive displacement of the bound tracer. To further gauge the robustness of these interactions, the fold response over the control (i.e., BRETtracer/BRETcontrol) was calculated. We chose a 1.5-fold response, which translates to ≥7-fold signal over noise as the minimal threshold required to score an interaction as positive. […]. Below we highlight the screening results obtained for our exemplary fluorescent tracers based on Clozapine, Amitriptyline and AZD1283.
(§2) HiBiT-GPCR DNA constructs were diluted in 10 mM Tris pH 8 to a final concentration of 0.01 μg/μL, arrayed in 96-well plates and stored at −20 °C. For transfection, HEK293 cells were suspended in Opti-MEM (without phenol red) supplemented with 2% fetal bovine serum (Seradigm) and 100 units/mL penicillin–streptomycin (Gibco) at a final concentration of 220,000 cells/mL and dispensed into white 96-well plates at 90 μL/well. Subsequent transfections and screens were carried using an Agilent Bravo Automated Liquid Handling Platform. First, the 96-well HiBiT DNA arrays were diluted 25-fold in Opti-MEM (without serum or phenol red) to a final concentration of 0.0004 μg/μL and 20 μL of the diluted DNAs were transferred into new 96-well plates. Next, promoterless carrier DNA (1 μg/μL) was diluted 25-fold (0.04 μg/μL) and then dispensed into the diluted arrays at 20 μL/well. Following brief mixing, Viafect transfection reagent (Promega) diluted 16-fold into Opti-MEM was dispensed into the plates at 40 μL/well. After mixing by pipetting, plates were incubated for 10 min on the pipetting station deck. The DNA-transfection reagent complexes were then added to plates containing cells. To facilitate the screen, 10 μL of DNA-transfection reagent complexes were added in duplicates to the top 4 and bottom 4 rows, resulting in two identical 48-well arrays per plate. Plates with transfected cells were incubated for 18–20 h at 37 °C/5% CO2. A screen of each tracer across the entire library using two different concentrations requires duplicate plates of transfected cells. Depending on the number of tracers being screened, transfections can be scaled up using the same ratios. The next day, for each tracer, four 20× screening solutions in tracer dilution buffer (Promega) were prepared: two duplicates at final concentration of 20 μM and two duplicates at a final concentration of 2 μM. A competing unmodified compound was added to one of each duplicate at a final concentration of 400 μM. The four resulting solutions were diluted 4-fold in Opti-MEM without serum or phenol red to generate 5× solutions (5 µM and 0.5 µM tracer +/− 100 μM competing compound). To screen the library, a BioTek MultiFlo FX liquid dispenser was used to dispense 22.5 µL of tracer solution to the top 4 rows and 22.5 µL tracer + competing compound solution to the 4 bottom rows. Plates were briefly mixed on an orbital shaker and incubated for 1.5 h at room temperature. […]

HRH3 = target: T2, HRH3 (Homo sapiens, UniProt Q9Y5N1); assay: NanoBRET screen HiBiT-HRH3 in HEK293
T2 construct: purchased Promega (in-house HiBiT-GPCR construct library, NanoBRET)
T2 sequence (Q9Y5N1 whole entry): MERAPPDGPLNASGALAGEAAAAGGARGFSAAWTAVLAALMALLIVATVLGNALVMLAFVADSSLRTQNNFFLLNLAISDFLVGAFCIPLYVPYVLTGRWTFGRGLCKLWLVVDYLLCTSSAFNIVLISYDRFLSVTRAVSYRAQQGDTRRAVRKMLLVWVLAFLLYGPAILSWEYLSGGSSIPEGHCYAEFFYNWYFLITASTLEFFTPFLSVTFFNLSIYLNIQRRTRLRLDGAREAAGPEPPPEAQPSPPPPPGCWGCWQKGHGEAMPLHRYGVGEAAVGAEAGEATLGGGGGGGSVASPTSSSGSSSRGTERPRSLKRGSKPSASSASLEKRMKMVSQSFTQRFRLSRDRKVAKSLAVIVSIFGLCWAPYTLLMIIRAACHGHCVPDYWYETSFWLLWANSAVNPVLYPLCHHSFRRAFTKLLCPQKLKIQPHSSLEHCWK
Experimental: as §1, §2

PTGER1 = target: T3, PTGER1 (Homo sapiens, UniProt P34995); assay: NanoBRET screen HiBiT-PTGER1 in HEK293
T3 construct: purchased Promega (in-house HiBiT-GPCR construct library, NanoBRET)
T3 sequence (P34995 1-402): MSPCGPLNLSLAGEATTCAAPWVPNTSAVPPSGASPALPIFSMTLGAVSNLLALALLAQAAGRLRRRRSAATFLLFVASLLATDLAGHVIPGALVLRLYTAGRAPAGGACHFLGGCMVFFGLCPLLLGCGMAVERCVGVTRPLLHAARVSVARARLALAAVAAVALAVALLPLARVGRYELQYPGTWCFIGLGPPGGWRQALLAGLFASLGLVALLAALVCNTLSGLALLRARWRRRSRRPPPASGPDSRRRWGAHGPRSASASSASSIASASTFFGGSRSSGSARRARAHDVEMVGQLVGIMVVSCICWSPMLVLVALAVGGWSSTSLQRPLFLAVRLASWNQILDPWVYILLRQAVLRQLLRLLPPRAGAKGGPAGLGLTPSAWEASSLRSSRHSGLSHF
Experimental: as §1, §2

NPY1R = target: T4, NPY1R (Homo sapiens, UniProt P25929); assay: NanoBRET screen HiBiT-NPY1R in HEK293
T4 construct: purchased Promega (in-house HiBiT-GPCR construct library, NanoBRET)
T4 sequence (P25929 1-384): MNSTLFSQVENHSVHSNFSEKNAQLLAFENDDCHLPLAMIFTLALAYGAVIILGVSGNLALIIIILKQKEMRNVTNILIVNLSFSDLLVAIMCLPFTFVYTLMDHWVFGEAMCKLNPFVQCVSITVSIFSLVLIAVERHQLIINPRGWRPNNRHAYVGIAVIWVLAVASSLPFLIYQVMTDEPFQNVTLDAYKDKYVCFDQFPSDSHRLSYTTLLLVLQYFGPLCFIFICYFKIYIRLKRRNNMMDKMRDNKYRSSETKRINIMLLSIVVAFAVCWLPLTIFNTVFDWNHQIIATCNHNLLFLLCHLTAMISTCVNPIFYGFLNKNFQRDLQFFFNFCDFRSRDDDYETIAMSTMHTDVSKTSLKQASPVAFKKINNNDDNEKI
Experimental: as §1, §2

GRPR = target: T5, GRPR (Homo sapiens, UniProt P30550); assay: NanoBRET screen HiBiT-GRPR in HEK293
T5 construct: purchased Promega (in-house HiBiT-GPCR construct library, NanoBRET)
T5 sequence (P30550 whole entry): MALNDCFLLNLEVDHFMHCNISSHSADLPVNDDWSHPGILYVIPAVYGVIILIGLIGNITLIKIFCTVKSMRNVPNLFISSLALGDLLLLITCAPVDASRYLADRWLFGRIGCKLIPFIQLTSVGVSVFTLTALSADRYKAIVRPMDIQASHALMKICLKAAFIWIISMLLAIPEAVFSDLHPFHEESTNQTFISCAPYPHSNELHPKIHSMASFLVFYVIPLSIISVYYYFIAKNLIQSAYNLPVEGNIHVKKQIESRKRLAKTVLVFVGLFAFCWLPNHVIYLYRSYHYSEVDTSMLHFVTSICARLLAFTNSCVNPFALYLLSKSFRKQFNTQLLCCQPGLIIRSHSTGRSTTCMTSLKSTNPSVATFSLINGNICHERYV
Experimental: as §1, §2

CCR8 = target: T6, CCR8 (Homo sapiens, UniProt P51685); assay: NanoBRET screen HiBiT-CCR8 in HEK293
T6 construct: purchased Promega (in-house HiBiT-GPCR construct library, NanoBRET)
T6 sequence (P51685 whole entry): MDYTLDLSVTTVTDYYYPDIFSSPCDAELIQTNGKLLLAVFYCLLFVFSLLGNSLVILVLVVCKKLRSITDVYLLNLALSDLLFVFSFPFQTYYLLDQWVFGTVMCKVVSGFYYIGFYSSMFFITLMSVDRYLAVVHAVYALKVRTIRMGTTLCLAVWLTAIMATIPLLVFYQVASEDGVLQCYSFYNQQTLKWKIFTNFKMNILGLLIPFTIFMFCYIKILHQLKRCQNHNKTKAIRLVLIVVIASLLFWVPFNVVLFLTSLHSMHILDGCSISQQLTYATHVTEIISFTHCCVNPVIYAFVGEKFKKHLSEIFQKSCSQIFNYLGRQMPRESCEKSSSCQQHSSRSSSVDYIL
Experimental: as §1, §2

T1 sequence (Q14332 24-565): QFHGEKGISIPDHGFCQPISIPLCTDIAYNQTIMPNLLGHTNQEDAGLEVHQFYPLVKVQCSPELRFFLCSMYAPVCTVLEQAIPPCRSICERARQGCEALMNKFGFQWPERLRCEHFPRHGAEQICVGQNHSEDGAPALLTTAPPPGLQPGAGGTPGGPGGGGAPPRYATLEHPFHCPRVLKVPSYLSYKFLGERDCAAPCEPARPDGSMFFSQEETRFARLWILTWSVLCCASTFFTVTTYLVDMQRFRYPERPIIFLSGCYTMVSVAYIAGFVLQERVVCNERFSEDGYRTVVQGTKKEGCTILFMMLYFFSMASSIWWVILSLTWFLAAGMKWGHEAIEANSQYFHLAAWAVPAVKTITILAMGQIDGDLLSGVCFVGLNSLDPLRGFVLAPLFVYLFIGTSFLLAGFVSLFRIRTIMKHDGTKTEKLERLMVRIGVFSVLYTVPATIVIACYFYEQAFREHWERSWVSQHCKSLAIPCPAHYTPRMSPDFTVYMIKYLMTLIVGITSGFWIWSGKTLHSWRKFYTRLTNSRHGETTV

SMILES | NanoBRET Fold Response (FZD2; FZD2, tracer 0.1μM) | NanoBRET Fold Response (FZD2; FZD2, tracer 1μM) | NanoBRET Fold Response (HRH3; HRH3, tracer 0.1μM) | NanoBRET Fold Response (HRH3; HRH3, tracer 1μM) | NanoBRET Fold Response (PTGER1; PTGER1, tracer 0.1μM) | NanoBRET Fold Response (PTGER1; PTGER1, tracer 1μM) | NanoBRET Fold Response (NPY1R; NPY1R, tracer 0.1μM) | NanoBRET Fold Response (NPY1R; NPY1R, tracer 1μM) | NanoBRET Fold Response (GRPR; GRPR, tracer 0.1μM) | NanoBRET Fold Response (GRPR; GRPR, tracer 1μM) | NanoBRET Fold Response (CCR8; CCR8, tracer 0.1μM) | NanoBRET Fold Response (CCR8; CCR8, tracer 1μM) | also measured
Cc1nc2n(c(=O)c1CCN1CCC(c3noc4cc(F)ccc34)CC1)CCCC2OC(=O)NCCOCCOCCOCCOCCNC(=O)CCc1ccc2n1[B-](F)(F)[N+]1=C(c3ccc[nH]3)C=CC1=C2 (stereo not drawn) [Risperidone-2-NB590] | 1.01 | 1.03 | 1.07 | 1.58 | 1.04 | 1.07 | 0.88 | 0.99 | 0.96 | 0.91 | 0.98 | 0.89 | –
COc1ccc2[nH]c(-c3ccc(CNC(=O)CCOCCOCCOCCOCCNC(=O)CCc4ccc5n4[B-](F)(F)[N+]4=C(c6ccc[nH]6)C=CC4=C5)cc3)c(CCNC(C)=O)c2n1 [AzomelatoninICO9-2-NB590] | – | – | – | – | – | – | – | – | – | – | – | – | NanoBRET Fold Response (FZD2; 0.1μM tracer): 0.99; NanoBRET Fold Response (FZD2; 1μM tracer): 1.11; NanoBRET Fold Response (HRH3; 0.1μM tracer): 1.09; NanoBRET Fold Response (HRH3; 1μM tracer): 1.03; NanoBRET Fold Response (PTGER1; 0.1μM tracer): 0.77; NanoBRET Fold Response (PTGER1; 1μM tracer): 0.95; NanoBRET Fold Response (NPY1R; 0.1μM tracer): 1.15; NanoBRET Fold Response (NPY1R; 1μM tracer): 0.94; NanoBRET Fold Response (GRPR; 0.1μM tracer): 0.84; NanoBRET Fold Response (GRPR; 1μM tracer): 1.22; NanoBRET Fold Response (CCR8; 0.1μM tracer): 0.68; NanoBRET Fold Response (CCR8; 1μM tracer): 1.10
COc1ccccc1N1CCN(CCCCN2C(=O)c3ccc(CNC(=O)CCOCCOCCOCCOCCNC(=O)CCc4ccc5n4[B-](F)(F)[N+]4=C(c6ccc[nH]6)C=CC4=C5)cc3C2=O)CC1 [NAN-190-2-NB590] | 0.97 | 1.02 | 0.98 | 0.97 | 0.93 | 1.04 | 1.02 | 0.94 | 0.99 | 0.92 | 0.92 | 0.92 | –
O=C(CCc1ccc2n1[B-](F)(F)[N+]1=C(c3ccc[nH]3)C=CC1=C2)NCCOCCOCCNC(=O)OCCOCCN1CCN(C2=Nc3ccccc3Sc3ccccc32)CC1 [Quetiapine-a-2-NB590] | 0.96 | 0.89 | 1.09 | 0.98 | 1.07 | 1.05 | 1.03 | 0.71 | 0.66 | 0.84 | 0.93 | 1.16 | –
O=C(CCOCCOCCOCCOCCNC(=O)CCc1ccc2n1[B-](F)(F)[N+]1=C(c3ccc[nH]3)C=CC1=C2)NCCCN1CCN(C2=Nc3cc(Cl)ccc3Nc3ccccc32)CC1 [Clozapine-a-2-NB590] | – | – | – | – | – | – | – | – | – | – | – | – | NanoBRET Fold Response (FZD2; FZD2, 0.1μM tracer): 1.04; NanoBRET Fold Response (FZD2; FZD2, 1μM tracer): 1.02; NanoBRET Fold Response (HRH3; HRH3, 0.1μM tracer): 0.97; NanoBRET Fold Response (HRH3; HRH3, 1μM tracer): 0.91; NanoBRET Fold Response (PTGER1; PTGER1, 0.1μM tracer): 1.03; NanoBRET Fold Response (PTGER1; PTGER1, 1μM tracer): 1.02; NanoBRET Fold Response (NPY1R; NPY1R, 0.1μM tracer): 0.97; NanoBRET Fold Response (NPY1R; NPY1R, 1μM tracer): 1.23; NanoBRET Fold Response (GRPR; GRPR, 0.1μM tracer): 1.11; NanoBRET Fold Response (GRPR; GRPR, 1μM tracer): 1.37; NanoBRET Fold Response (CCR8; CCR8, 0.1μM tracer): 1.02; NanoBRET Fold Response (CCR8; CCR8, 1μM tracer): 0.93
N#CN=C(NCCCOc1cccc(CN2CCCCC2)c1)NCCNC(=O)CCOCCOCCOCCOCCNC(=O)CCc1ccc2n1[B-](F)(F)[N+]1=C(c3ccc[nH]3)C=CC1=C2 [Aminopotentidine-2-NB590] | 1.08 | 1.06 | 2.54 | 2.06 | 0.97 | 0.95 | 0.99 | 1.01 | 1.08 | 0.98 | 0.99 | 0.89 | –
O=C(CCc1ccc2n1[B-](F)(F)[N+]1=C(c3ccc[nH]3)C=CC1=C2)NCc1ccc(C(=O)NCCOCCOCCNCC(O)COc2cccc3ccccc23)cc1 (stereo not drawn) [Propranolol-3-NB590] | – | – | – | – | – | – | – | – | – | – | – | – | NanoBRET Fold Response (FZD2; FZD2, 0.1μM): 0.97; NanoBRET Fold Response (FZD2; FZD2, 1μM): 1.01; NanoBRET Fold Response (HRH3; HRH3, 0.1μM): 0.97; NanoBRET Fold Response (HRH3; HRH3, 1μM): 1.00; NanoBRET Fold Response (PTGER1; PTGER1, 0.1μM): 1.07; NanoBRET Fold Response (PTGER1; PTGER1, 1μM): 1.06; NanoBRET Fold Response (NPY1R; NPY1R, 0.1μM): 1.08; NanoBRET Fold Response (NPY1R; NPY1R, 1μM): 0.99; NanoBRET Fold Response (GRPR; GRPR, 0.1μM): 0.99; NanoBRET Fold Response (GRPR; GRPR, 1μM): 1.03; NanoBRET Fold Response (CCR8; CCR8, 0.1μM): 1.00; NanoBRET Fold Response (CCR8; CCR8, 1μM): 0.93
O=C(CCc1ccc2n1[B-](F)(F)[N+]1=C(c3ccc[nH]3)C=CC1=C2)NCc1ccc(C(=O)NCCOCCC(=O)N[C@@H]2CC[C@@]3(O)[C@H]4Cc5ccc(O)c6c5[C@@]3(CCN4CC3CC3)[C@H]2O6)cc1 [Naltrexone-3-NB590] | 0.84 | 0.88 | 0.76 | 0.77 | 1.01 | 1.02 | 0.93 | 1.02 | 0.91 | 0.92 | 1.14 | 1.02 | –
